Read-outs that look alike come from different tables or passages of the source.

What all share (type): cell-based, human
Assay [1] relates to AGS cells (KRAS G12D). As to the kind of experiment: Cell proliferation inhibition assay, 3D, CellTiter-Glo 3D, AGS. As to conditions: AGS 3D sphere model, 5 days incubation. Put shortly: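 Spheroids (800 AsPC-1 or 400 AGS cells/well; RPMI-1640 or F-12K with 10% FBS) formed overnight, then were dosed on day 2 with a 3.16-fold series at 0.1% DMSO. After 5 days, viability was read by CellTiter-Glo 3D luminescence, and IC50 came from four-parameter fits of inhibition versus DMSO control and medium blank.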
(Cellular ATP, detected with luciferase, serves as a proxy for viable cell number.)

For assay [2], the system named is p-ERK in AGS cells (KRAS G12D mutation). As to the kind of experiment: Cell p-ERK assay (HTRF, Advance ERK phospho-T202/Y204 kit). As to conditions: AGS cells, 3 hours incubation with compound, HTRF, read-out: AGS p-ERK IC50. In a few lines:
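Phospho-ERK (T202/Y204) measured by HTRF in lysates of human gastric AGS cells carrying KRAS G12D, after 3 h compound exposure at 0.1% DMSO over a 3.16-fold series. Percent inhibition relative to DMSO control and lysis-only blank; four-parameter curve fitting gave IC50.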
Background: Time-resolved FRET reads energy transfer from a long-lived donor to a nearby acceptor.

The subject of assay [3] is AsPC-1 cells (KRAS G12D mutation). In words: Cell proliferation inhibition assay, 3D, CellTiter-Glo 3D, AsPC-1. To be noted: AsPC-1 3D sphere model, 5 days incubation. The source says:
AsPC-1 was purchased from ATCC; catalog No: CRL-1682; AGS was purchased from ATCC; catalog No: CRL-1739; RPMI1640 was purchased from Gibco; catalog No: 11875-093 2235123; F12K was purchased from Gibco; catalog No: 21127-022; FBS was purchased from Gibco; catalog No: 10099-141C; trypsin (containing EDTA) was purchased from Gibco; catalog No: 25200-072; CellTiter Glo-3D was purchased from Progema; catalog No: G9683; 384-well sphere plates were purchased from Corning; catalog No: 3830; white opaque 384-well plates were purchased from Corning; catalog No: 3570; cell counters were purchased from CHEMOMETEC; model: NC-200; microplate reader was purchased from PerkinElmer; model: Envison;
AsPC-1 is an endogenous human pancreatic cancer cell containing KRAS^G12D mutation, cultured in RPMI-1640 medium containing 10% FBS; AGS is a human gastric cancer cell line containing KRAS^G12D, cultured in F-12K medium containing 10% FBS. Cells in the logarithmic growth phase were taken, digested with trypsin (containing EDTA), collected, and counted. 800 AsPC-1 cells/well or 400 AGS cells/well, respectively, were seeded in a 384-well sphere plate and cultured overnight at 5% CO2 to establish a 3D cell model. 1000X stock solutions of compounds at a 3.16-fold concentration gradient of were prepared using DMSO, diluted 100-fold into a 10X compound stock solution using the medium described above. The 10X compound stock solution was added to each cell on 2nd day after cell seeding at a final concentration of 1X and a DMSO content of 0.1%. DMSO was used as a control in the experiment, and the medium was used as blank. After the addition of the compounds, the cells were incubated for 5 days. 30 μl of CellTiter-Glo work solution was added to each well, mixed well, and incubated for 30 minutes. After standing at room temperature for 30 minutes, 40 μl of the mixed solution was transferred to an opaque 384-well plate with a white clear bottom. Luminescence chemiluminescence value was read by a microplate reader, and the cell proliferation inhibition rate (IR (%)=(RLU control-RLU compound)/(RLU control-RLU blank)×100%) was calculated. The gradiently diluted concentration of the compounds and corresponding cell proliferation inhibition rate were fitted using XLFit four-parameters method, and the IC50 value was calculated. […] The results of some exemplary compounds are shown in Table 2 (“−” represents untested).

A word on the IC50: it is the midpoint of a concentration-inhibition curve. Regarding `C#Cc1c(F)ccc2cccc(-c3nc4c5c(nc(OCC6(CN7CCOCC7)CC6)nc5c3F)N3C[C@H]5CC[C@H](N5)[C@H]3[C@H](C)O4)c12` [Example Z693, (58,5aS,6S,9R)-2-(8-ethynyl-7-fluoronaphthalen-1-yl)-1-fluoro-5-methyl-12-((1-(morpholinomethyl)cyclopropyl)methoxy)-5a,6,7,8,9,10-hexahydro-5H-4-oxa-3,10a, 11, 13,14-pentaaza-6,9-methanonaphtho[1,8-ab]heptalene], the IC50 in assay [1] (Homo sapiens, 120 h) came to 27.3 nM; in assay [2] (Homo sapiens), 9.23 nM; in assay [3] (Homo sapiens, ASPC1, 120 h), 31.1 nM.

`C#Cc1cccc2cc(O)cc(-c3nc4c5c(nc(OC[C@@]67CCCN6C[C@H](F)C7)nc5c3F)N3C[C@H]5CC[C@H](N5)[C@H]3[C@H](CC)O4)c12` [Example Z386, 4-((5S,5aS,6S,9R)-5-Ethyl-1-Fluoro-12-(((2R,7aS)-2-Fluorotetrahydro-1H-Pyrrolizin-7a (5H)-Yl)Methoxy)-5a,6,7,8,9,10-Hexahydro-5H-4-Oxa-3,10a,11,13,14-Pentaaza-6,9-Methanonaphtho[1,8-Ab]Heptalen-2-Yl)-5-Ethynylnaphthalen-2-Ol]: the IC50 in assay [1] (Homo sapiens, 120 h) came out at 2.4 nM; in assay [2] (Homo sapiens) it was 0.76 nM; in assay [3] (Homo sapiens, ASPC1, 120 h), 14.7 nM.

As for `CCc1cccc2cc(O)cc(-c3nc4c5c(nc(OC[C@@]67CCCN6C[C@H](F)C7)nc5c3F)N3C[C@H]5CC[C@H](N5)[C@H]3CO4)c12` [Example Z140-1, 5-Ethyl-4-((5aS,6S,9R)-1-Fluoro-12-(((2R,7aS)-2-Fluorotetrahydro-1H-Pyrrolizin-7a (5H)-Yl)Methoxy)-5a,6,7,8,9,10-Hexahydro-5H-4-Oxa-3,10a,11,13,14-Pentaaza-6,9-Methanonaphtho[1,8-Ab]Heptalen-2-Yl) Naphthalen-2-Ol], the IC50 in assay [1] (Homo sapiens, 120 h) was determined as 4 nM; in assay [2] (Homo sapiens), 2.85 nM; in assay [3] (Homo sapiens, ASPC1, 120 h), 21.1 nM.

As for `C#Cc1c(F)ccc2cccc(-c3nc4c5c(nc(OCC67CC(OC)CN6CCC7=C)nc5c3F)N3C[C@H]5CC[C@H](N5)[C@H]3[C@H](C)O4)c12` (stereo partly drawn) [Example Z681, (5S,5aS,6S,9R)-2-(8-Ethynyl-7-Fluoronaphthalen-1-Yl)˜1-Fluoro-12-((6-Methoxy-1-Methylenetetrahydro-1H-Pyrrolizin-7a (5H)-Yl)Methoxy)-5-Methyl-5a,6,7,8,9,10-Hexahydro-5H-4-Oxa-3,10a,11,13,14-Pentaaza-6,9-Methanonaphtho[1,8-Ab]Heptalene], the IC50 worked out at 13 nM in assay [1], 5.73 nM in assay [2] and 37.9 nM in assay [3].

Consider `C#Cc1c(F)ccc2cccc(-c3nc4c5c(nc(OCC67CCCN6CC(=C)C7)nc5c3F)N3C[C@H]5CC[C@H](N5)[C@H]3[C@H](C)O4)c12` (stereo partly drawn) [Example Z590, (5S,5aS,6S,9R)-2-(8-ethynyl-7-fluoronaphthalen-1-yl)-1-fluoro-5-methyl-12-((2-methylenetetrahydro-1H-pyrrolizin-7a (5H)-yl)methoxy)-5a,6,7,8,9,10-hexahydro-5H-4-oxa-3,10a,11,13,14-pentaaza-6,9-methanonaphtho[1,8-ab]heptalene], for which the IC50 turned out to be 17.3 nM in assay [1] (Homo sapiens, 120 h); 7.11 nM in assay [2] (Homo sapiens); 114 nM in assay [3] (Homo sapiens, ASPC1, 120 h).

On to `C#Cc1cccc2cc(N)cc(-c3nc4c5c(nc(OC[C@@H]6C[C@@H](F)CN6C)nc5c3F)N3C[C@H]5CC[C@H](N5)[C@H]3[C@H](C)O4)c12` [Example Z732, 5-ethynyl-4-((5S,5aS,6S,9R)-1-fluoro-12-(((28,4R)-4-fluoro-1-methylpyrrolidin-2-yl)methoxy)-5-methyl-5a,6,7,8,9,10-hexahydro-5H-4-oxa-3,10a, 11, 13, 14-pentaaza-6,9-methanonaphtho[1,8-ab]heptalene-2-yl) naphthalen-2-amine], for which the figures for the IC50 in assay [1], in assay [2] and in assay [3] were 10.8 nM, 2.88 nM and 11.8 nM, respectively.

For the origin of these results see patent US20250186456A1, “PYRIMIDINE-FUSED CYCLIC COMPOUND AND PREPARATION METHOD AND USE THEREOF” (Genfleet Therapeutics (Shanghai) Inc., priority 2021, published 2025).
